Laboratory results: US20150181881A1, “METHODS FOR CONTROLLING FUNGAL DISEASES IN MUSHROOM PRODUCTION” (DSM IP ASSETS B.V., priority 2012, published 2015)

How the values were obtained:
Trichoderma harzianum = test: In vitro antifungal activity in 96-well microtiter plates against Trichoderma harzianum; assay type: cell-based
Description: Subsequently, 100 μl of a Verticillium fungicola suspension prepared in PCB medium is used to inoculate each well with 5.0×10^3 spores/ml.
, the in vitro antifungal activity (%) of the individual active ingredients was assessed by calculating the reduction in mould growth observed in the presence of the active ingredient in comparison to the mould growth observed in the absence of the active ingredient. The expected antifungal activity (E in %) of the active ingredient combination was calculated according to the Colby equation (Colby, 1967): […]
wherein X and Y are the observed antifungal activities (in %) of the individual active ingredients X and Y, respectively. If the observed antifungal activity (O in %) of the combination exceeds the expected antifungal activity (E in %) of the combination and the resulting synergy factor O/E is thus >1.0, the combined application of the active ingredients leads to a synergistic antifungal effect.
Furthermore, Trichoderma harzianum was used for inoculation.

Verticillium fungicola = test: In vitro antifungal activity in 96-well microtiter plates against Verticillium fungicola; assay type: cell-based
Description: The following compositions are tested: • Control (no active ingredient), • 1.25 or 2.5 ppm natamycin (DSM Food Specialties, Delft, The Netherlands), • 0.5 ppm chlorothalonil, • 1.25 ppm natamycin+0.5 ppm chlorothalonil, • 2.5 ppm natamycin+0.5 ppm chlorothalonil. […] Subsequently, 100 μl of a Verticillium fungicola suspension prepared in PCB medium is used to inoculate each well with 5.0×10^3 spores/ml. […] After incubation of the microtiter plates for 3 and 5 days at 25° C., the in vitro antifungal activity (%) of the individual active ingredients was assessed by calculating the reduction in mould growth observed in the presence of the active ingredient in comparison to the mould growth observed in the absence of the active ingredient. The expected antifungal activity (E in %) of the active ingredient combination was calculated according to the Colby equation (Colby, 1967): […] wherein X and Y are the observed antifungal activities (in %) of the individual active ingredients X and Y, respectively.

[1] = Chlorothalonil 0.5 ppm, incubation 5 days at 25° C.

Measured: Observed antifungal activity O (%)

N#Cc1c(Cl)c(Cl)c(Cl)c(C#N)c1Cl [Chlorothalonil, 2,4,5,6-tetrachloroisophthalonitrile]
0%: Trichoderma harzianum; [1] | Trichoderma harzianum; Chlorothalonil 1.0 ppm, incubation 10 days at 25° C. | Trichoderma harzianum; Chlorothalonil 1.0 ppm, incubation 17 days at 25° C. | Trichoderma harzianum; Chlorothalonil 1.5 ppm, incubation 17 days at 25° C. | Verticillium fungicola; Chlorothalonil 0.5 ppm, incubation 3 days at 25° C. | Verticillium fungicola; [1]

C[C@@H]1C/C=C/C=C/C=C/C=C/[C@H](O[C@@H]2O[C@H](C)[C@@H](O)[C@H](N)[C@@H]2O)C[C@@H]2O[C@](O)(C[C@@H](O)C[C@H]3O[C@@H]3/C=C/C(=O)O1)C[C@H](O)[C@H]2C(=O)O [Natamycin, natamycin]
0%: Trichoderma harzianum; Natamycin 1.25 ppm, incubation 5 days at 25° C. | Trichoderma harzianum; Natamycin 1.25 ppm, incubation 10 days at 25° C. | Trichoderma harzianum; Natamycin 1.25 ppm, incubation 17 days at 25° C. | Trichoderma harzianum; Natamycin 2.5 ppm, incubation 17 days at 25° C. | Verticillium fungicola; Natamycin 1.25 ppm, incubation 3 days at 25° C. | Verticillium fungicola; Natamycin 2.5 ppm, incubation 5 days at 25° C.
